Laboratory results published in article PMC6120190, “Identification of two distinct peptide-binding pockets in the SH3 domain of human mixed-lineage kinase 3” (The Journal of Biological Chemistry, 2018).
No end group written: not given here.

Columns and labels:
GST-MLK3 SH3 [1] = assay: phage ELISA of phage-displayed MIP and variants on GST-MLK3 SH3; format: binding, human; settings: original clone/MIP, anti-M13 mAb-HRP detection, experiments in duplicate, averaged
Description: Figure 1. […] The presence of virions in the supernatant was determined by coating the wells of the microtiter plate with an anti-M13 mAb (anti-M13 Ab). Virions, which were retained in the microtiter plate wells, were detected with anti-M13 mAb conjugated to HRP. […] See also Fig. S1.
Figure 2. […] The MIP sequence, NH2-[…]-COOH, was fused to the N terminus of the pIII capsid protein of bacteriophage M13 ([51]) to facilitate type 3 pentavalent display. Systematic alanine replacements in the peptide were generated by Kunkel mutagenesis ([11]); Ala-1 and Ala-14 were replaced with Val. […] The signal for binding of MIP (WT) to GST-MLK3 SH3 is set as 100%, and other values are normalized to it. […] See also Fig. S2.
Screens for peptide ligands were performed following a protocol published previously ([11]). […] After three rounds of affinity selection, individual phage clones were isolated, and their binding was evaluated via phage ELISA ([11]). […]
All constructs were generated via Kunkel mutagenesis ([11], [57], [58]) and facilitated type 3 (pentavalent) display. […] All constructs were verified by DNA sequencing, and phage clones were evaluated for their binding to the target (GST-MLK3 SH3) via phage ELISA ([11]). […]

MLK3 SH3 domain = assay: analytical size-exclusion chromatography of MLK3 SH3-MIP fusion proteins (oligomeric state); format: binding, human; settings: Superdex 200 10/300 GL, 25 mM Tris-HCl, pH 7.4, 500 mM NaCl; for effect of mutation on binding to MLK3 SH3 (fusion proteins, gel filtration): 750 μg/200 μl (Fig. S4); for oligomeric state by size-exclusion chromatography: MIP(1–19) fusion 2 mg/200 μl, MIP(1–13) fusions 750 μg/200 μl
Source text: Two DNA fragments encoding the SH3 domain of MLK3 (UniProt entry Q16584), MLK3 SH3(41–105) and MLK3 SH3(44–103), and four fragments encoding SH3 domain-MIP fusions, MLK3 SH3(41–105)-MIP(1–19), MLK3 SH3(41–105)-MIP(1–13), MLK3 SH3(41–105)-MIP(1–13)W10A, and MLK3 SH3(41–105)-MIP(1–13)R12A, were commercially prepared as gBlocks Gene Fragments. One fragment encoding SH3 domain fused to an NS5A (UniProt entry A0A076MER2) peptide, MLK3 SH3(41–105)-NS5A(2325–2332), was created by amplifying MLK3 SH3(41–105) with T7 promoter primer and a reverse primer (see Table S1). The subsequent insert contained MLK3 SH3(41–105) with the NS5A fragment (aa 2325–2332) at the C terminus. All coding regions were codon-optimized for E. coli expression. DNA fragments were cleaved with NdeI and BamHI-HF (New England Biolabs) and subsequently ligated into a modified version of the pET14b expression vector where the N-terminal His6 tag is followed by a SUMO protease cleavage site. The resulting DNA constructs (verified by sequencing) were transformed into E. coli strain BL21 C41(DE3). Cells were grown at 37 °C in 2× YT medium, which was supplemented with either 50 μg/ml CB or 100 μg/ml ampicillin, protein expression was induced with 0.1–0.3 mM IPTG at an A600 nm of 0.6–0.7, and cells were cultured overnight at 22 °C. Cells were harvested by centrifugation; washed with 200 mM KCl, 50 mM Tris, pH 7.4; and lysed by sonication in 25 mM Tris, pH 7.4, 200 mM KCl, 10 mM MgCl2, 10% glycerol, 1% Triton X-100, 1 mM phenylmethylsulfonyl fluoride (PMSF). Clarified supernatant was loaded onto a 5-ml HisTrap^TM HP Ni-Sepharose column (GE Healthcare), and the column was washed with 25 mM Tris, pH 7.4, 500 mM NaCl supplemented with 10 and 25 mM imidazole. Protein was eluted in the same buffer, which was supplemented with 250 and 500 mM imidazole, and the fractions were pooled together. The His6-SUMO tag was cleaved with SUMO protease while dialyzing against 25 mM Tris, pH 7.4, 500 mM NaCl, 10 mM imidazole, and the tag was removed by loading the sample back onto a nickel column. Collected fractions containing purified protein were concentrated and injected onto an S-200 size-exclusion column (GE Healthcare) equilibrated with 25 mM Tris-HCl, pH 7.4, 500 mM NaCl. To confirm the purity, collected samples were analyzed by SDS-PAGE and detected with Coomassie Brilliant Blue staining. All purified proteins were concentrated and stored at −80 °C.
To determine oligomeric state of several MLK3 SH3 fusion proteins, samples were injected into a Superdex 200 10/300 GL size-exclusion chromatography column (GE Healthcare) in two independent experiments. Two samples, MLK3 SH3(41–105)-MIP(1–19) and MLK3 SH3(41–105), at 2 mg of protein/200-μl injection, were analyzed in the first experiment (Fig. S3). Three additional samples of MLK3 SH3 domain-MIP fusion proteins were analyzed in a second experiment by injecting 750 μg of protein in 200 μl: MLK3 SH3(41–105)-MIP(1–13), MLK3 SH3(41–105)-MIP(1–13)W10A, and MLK3 SH3(41–105)-MIP(1–13)R12A (Fig. S4). Prior to the injections, the column was equilibrated with 25 mM Tris-HCl, pH 7.4, 500 mM NaCl.
Figure S3. Comparison of apo vs peptide-bound MLK3 SH3. Gel filtration chromatography of MLK3 SH3 and MLK3 SH3-MIP(1-19) fusion using Superdex 200 10/300 GL. Both constructs were expressed and purified as His6-SUMO fusions and the tag cleaved with SUMO protease. […] PS corresponds to MW standards (kDa).
Figure S4. W10 and R12 in MIP are critical for intermolecular interaction with MLK3 SH3 in vitro. Three fusion proteins composed of MLK3 SH3(41-105) domain linked via its C-terminus to one of the MIP variant: MIP(1-13) (Blue), MIP(1-13)W10A (Red), or MIP(1-13)R12A (Green), and have been analyzed using gel filtration chromatography. Corresponding sequences of MIP variants are: […] (Blue), […] (Red), and […] (Green). […] The chromatogram corresponding to MLK3 SH3 (Orange) was scaled down by approximately 33%. […]

GST-MLK1 SH3 [2] = assay: specificity ELISA, MLK1; format: binding, human; settings: biotinylated peptide ≈2 μM on NeutrAvidin; GST-SH3 0.15 μM, 1–1.5 h; anti-GST-HRP; triplicate (Fig. 8)
Description: (§1) Figure 8. Binding of MIP and NS5A peptides to SH3 domain of other members of MLK subfamily (MLK1–4). To determine whether MIP and NS5A can interact with SH3 domains of MLK1–4 proteins, the purified GST-MLK1–4 SH3 domains were incubated with biotinylated peptides, NS5A peptide ([…]-GGG-K-biotin), MIP ([…]-K-biotin), and MIP-R12A ([…]-K-biotin), immobilized on a NeutrAvidin-coated 96-well ELISA plate. Binding of SH3 domain was detected with anti-GST antibody conjugated to HRP. […] See also Fig. S6.
(§2) Two plasmids, gifts from Dr. Gerardo Morfini, University of Illinois at Chicago, encoding a GST protein fused to either the WT or mutant Y52A of the SH3 domain of MLK3 (UniProt entry Q16584; aa 43–104), respectively, between BamHI and EcoRI sites, were transformed into the Escherichia coli strain Rosetta(DE3)pLysS. DNA fragments encoding the SH3 domain of MLK1 (UniProt entry P80192; aa 52–116), MLK2 (UniProt entry Q02779; aa 16–81), and MLK4 (UniProt entry Q5TCX8; aa 38–102) were commercially prepared as gBlocks® Gene Fragments (Integrated DNA Technologies, Inc.). All coding regions were codon-optimized for E. coli expression. DNA fragments were cleaved with BamHI-HF® and EcoRI-HF® (New England Biolabs) and subsequently ligated into pGex-2T vector. […]

GST-MLK2 SH3 = assay: specificity ELISA, MLK2; format: binding, human; settings: biotinylated peptide ≈2 μM on NeutrAvidin; GST-SH3 0.15 μM, 1–1.5 h; anti-GST-HRP; triplicate (Fig. 8)
Description: as §1, §2

GST-MLK3 SH3 [3] = assay: specificity ELISA, MLK3; format: binding, human; settings: biotinylated peptide ≈2 μM on NeutrAvidin; GST-SH3 0.15 μM, 1–1.5 h; anti-GST-HRP; triplicate (Fig. 8)
Description: as §1, §2

GST-MLK4 SH3 [4] = assay: specificity ELISA, MLK4; format: binding, human; settings: biotinylated peptide ≈2 μM on NeutrAvidin; GST-SH3 0.15 μM, 1–1.5 h; anti-GST-HRP; triplicate (Fig. 8)
Description: as §1, §2

MLK3 SH3 domain Y52A = assay: binding to Y52A mutant of MLK3 SH3; set-up: species or system human; settings: data not shown
Source text: Two plasmids, gifts from Dr. Gerardo Morfini, University of Illinois at Chicago, encoding a GST protein fused to either the WT or mutant Y52A of the SH3 domain of MLK3 (UniProt entry Q16584; aa 43–104), respectively, between BamHI and EcoRI sites, were transformed into the Escherichia coli strain Rosetta(DE3)pLysS. DNA fragments encoding the SH3 domain of MLK1 (UniProt entry P80192; aa 52–116), MLK2 (UniProt entry Q02779; aa 16–81), and MLK4 (UniProt entry Q5TCX8; aa 38–102) were commercially prepared as gBlocks® Gene Fragments (Integrated DNA Technologies, Inc.). All coding regions were codon-optimized for E. coli expression. DNA fragments were cleaved with BamHI-HF® and EcoRI-HF® (New England Biolabs) and subsequently ligated into pGex-2T vector. The resulting DNA constructs, pGex-MLK1 SH3, pGex-MLK2 SH3, and pGex-MLK4 SH3 (verified by sequencing) were transformed into E. coli strain BL21(DE3).

GST-MLK3 SH3(43–104) = target: T1, GST-MLK3 SH3(43–104) (human, UniProt Q16584 43-104); assay: ELISA; settings: both partners purified
T1 construct: also called GST-MLK3 SH3-WT; SH3 WT
T1 sequence (looked up): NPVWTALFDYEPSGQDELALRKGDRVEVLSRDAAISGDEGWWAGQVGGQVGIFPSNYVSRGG

GST-MLK1 SH3 [5] = target: T2, GST-MLK1 SH3 (UniProt P80192 52-116); assay: ELISA; settings: both partners purified
T2 construct: also called SH3 domain of MLK1
T2 sequence (looked up): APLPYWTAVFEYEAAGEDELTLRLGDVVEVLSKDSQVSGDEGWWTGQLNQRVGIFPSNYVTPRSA

GST-MLK4 SH3 [6] = target: T3, GST-MLK4 SH3 (UniProt Q5TCX8 38-102); assay: ELISA; settings: both partners purified
T3 construct: also called SH3 domain of MLK4
T3 sequence (looked up): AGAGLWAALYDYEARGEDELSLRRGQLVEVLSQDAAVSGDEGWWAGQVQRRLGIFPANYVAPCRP

In the case of “H-IRINPNGTWSRQ-OH [single clone displaying a 12-mer peptide from ANL7 library]”, the “binding to GST-MLK3 SH3 in phage ELISA” value (GST-MLK3 SH3 [1]) is reported as “bound to the wildtype (WT) form of the MLK3 SH3 domain”.

For “AIRINPNGTASRQ [MIP(1–13)W10A, SH3 domain linked via its C terminus to MIP(1–13)W10A]”, the “effect of mutation on binding to MLK3 SH3 (fusion proteins, gel filtration)” value (MLK3 SH3 domain) was “loss of binding to MLK3 SH3”, the “oligomeric state by size-exclusion chromatography” value (“oligomeric state” for short) (MLK3 SH3 domain) was “elute at a volume corresponding to the size of a monomeric fusion protein” and the “oligomeric state” value (MLK3 SH3 domain; listed as MIP(1-13)W10A) was “elute at fraction corresponding to the size of a monomeric fusion protein”.

“AIRINPNGTWSRQ [MLK3 SH3(41–105)-MIP(1–13), SH3 domain linked via its C terminus to truncated WT ligand]” was tested, and the “oligomeric state” value (MLK3 SH3 domain) was “eluted as a higher order oligomer”.

With “AIRINPNGTWSAQ [MIP(1–13)R12A, SH3 domain linked via its C terminus to MIP(1–13)R12A]” the “effect of mutation on binding to MLK3 SH3 (fusion proteins, gel filtration)” value (MLK3 SH3 domain) was “loss of binding to MLK3 SH3”, the “oligomeric state” value (MLK3 SH3 domain) was “elute at a volume corresponding to the size of a monomeric fusion protein” and the “oligomeric state” value (MLK3 SH3 domain; listed as MIP(1-13)R12A) was “elute at fraction corresponding to the size of a monomeric fusion protein”.

For “KKAPTPPPRRRRGGGK [NS5A peptide, reference compound]”, the “binding to MLK1 SH3” value (GST-MLK1 SH3 [2]) was “could bind”, the “binding to MLK2 SH3” value (GST-MLK2 SH3) was “could bind” and the “binding to MLK3 SH3” value (GST-MLK3 SH3 [3]) was “could bind”. The “binding to MLK4 SH3” value (GST-MLK4 SH3 [4]) was “could bind” and the “effect of SH3 mutation Y52A on peptide binding” value (MLK3 SH3 domain Y52A) was “disrupts binding”.

B1: biotinylated MIP (AIRINPNGTWSRQAETVES-K-biotin) (peptide)
peptide: AIRINPNGTWSRQAETVESK
modifications: biotin on the added C-terminal K
notes: also called immobilized MIP; biotinylated MIP peptide; source: synthetic peptide
B1: binds (GST-MLK3 SH3(43–104)); binds (GST-MLK1 SH3 [5]); binds (GST-MLK4 SH3 [6]).
